Measurements: patent US8114904B2, “Luminescence quenchers and fluorogenic probes for detection of reactive species” (Versitech Limited & Morningside Ventures Limited, priority 2008, dated 2012)

How the values were obtained:
[1] = Detection of peroxynitrite: fluorescence spectra after addition of peroxynitrite
Procedure: Compound 10 obtained in Example 4 was dissolved in DMF to a concentration of 10 mM, and then the solution was diluted to 10μM by 0.1 M potassium phosphate buffer (pH 7.4). Peroxynitrite solution in 0.1 M NaOH was prepared by the method of Keith and Powell (Keith, W. G. & Powell, R. E.; Kinetics of decomposition of peroxynitrous acid; J. Chem. Soc. A, 1969, 1, 90), and its concentration in the stock solutions used was estimated by using an extinction coefficient of 1670 cm^−1 (mol/L)^−1 at 302 nm (Hughes and Nicklin; The chemistry of pernitrites. Part I. Kinetics of decomposition of pernitrious acid; J. Chem. Soc. A, 1968, 2, 450-452). Peroxynitrite stock solution was added into the solution of Compound 10 to provide various final concentrations, like 0, 2, 6, 10, 20, 30, 50 100, and 200 μM. Fluorescence spectra of the solutions were measured after 5 minutes under the same conditions as mentioned above.
Compound 12 obtained in Example 5 was dissolved in DMF to a concentration of 1 mM, and then the solution was diluted to 1 μM by 0.1 M potassium phosphate buffer (pH 7.4). Peroxynitrite solution in 0.1 M NaOH was prepared by the method of Keith and Powell (Keith, W. G. & Powell, R. E.; Kinetics of decomposition of peroxynitrous acid; J. Chem. Soc. A, 1969, 1, 90), and its concentration in the stock solutions used was estimated by using an extinction coefficient of 1670 cm^−1 (mol/L)^−1 at 302 nm (Hughes and Nicklin; The chemistry of pernitrites. Part I. Kinetics of decomposition of pernitrious acid; J. Chem. Soc. A, 1968, 2, 450-452). Peroxynitrite stock solution was added into the solution of Compound 12 to provide various final concentrations, like 0, 1, 2, 3, 4, 5, 6, and 7 μM. Fluorescence spectra of the solutions were measured after 5 minutes under the same conditions as mentioned above.
Compound 30 obtained in Example 7 was dissolved in DMF to a concentration of 10 mM, and then the solution was diluted to 10 μM by 0.1 M potassium phosphate buffer (pH 7.4). Peroxynitrite solution in 0.1 M NaOH was prepared by the method of Keith and Powell (Keith, W. G. & Powell, R. E.; Kinetics of decomposition of peroxynitrous acid; J. Chem. Soc. A, 1969, 1, 90), and its concentration in the stock solutions used was estimated by using an extinction coefficient of 1670 cm^−1 (mol/L)^−1 at 302 nm (Hughes and Nicklin; The chemistry of pernitrites. Part I. Kinetics of decomposition of pernitrious acid; J. Chem. Soc. A, 1968, 2, 450-452). Peroxynitrite stock solution was added into the solution of Compound 30 to provide various final concentrations. Fluorescence spectra of the solutions were measured after 5 minutes under the same conditions as mentioned above.

[2] = Emission spectra of the probe itself; assay type: physicochemical; conditions: Hitachi F2500, 700 V
Procedure: (§1) Compound 10 obtained in Example 4 was dissolved in DMF to a concentration of 10 mM, and then the solution was diluted to 10 μM by 0.1 M phosphate buffer (pH 7.4). The fluorescence spectrum of the 10 μM solution of Compound 10 was measured using a Hitachi F2500 fluorescence spectrometer and the photomultiplier voltage was 700 V. The slit width was 2.5 nm for both excitation and emission. The measurement was carried out at an excitation wavelength of 520 nm. The results shown in FIG. 1 indicate that Compound 10 itself is non-fluorescent.
(§2) Compound 12 obtained in Example 5 was dissolved in DMF to a concentration of 1 mM, and then the solution was diluted to 1 μM by 0.1 M phosphate buffer (pH 7.4). The fluorescence spectrum of the 1 μM solution of Compound 12 was measured using a Hitachi F2500 fluorescence spectrometer and the photomultiplier voltage was 700 V. The slit width was 2.5 nm for both excitation and emission. The measurement was carried out at an excitation wavelength of 515 nm. The results shown in FIG. 4 indicate that Compound 12 itself is non-fluorescent.
as §2, with “Compound 14” for “Compound 12”, “Example 6” for “Example 5”, “FIG. 6” for “FIG. 4”
as §1, with “Compound 30” for “Compound 10”, “Example 7” for “Example 4”, “Hitachi F7000” for “Hitachi F2500”, “was 900” for “was 700”, “nm.” for “nm. The results shown in FIG. 1 indicate that Compound 10 itself is non-fluorescent.”

SMILES	fluorescence intensity at 541 nm with increasing concentration of peroxynitrite ([1]; 10 μM probe, 0.1 M potassium phosphate buffer pH 7.4)	fluorescence intensity after the addition of peroxynitrite ([1]; 10 μM probe, 0.1 M potassium phosphate buffer pH 7.4, measured after 5 minutes, excitation 520 nm)	fluorescence of the probe itself ([2]; 10 μM, 0.1 M phosphate buffer pH 7.4, excitation 520 nm)	fluorescence intensity at 535 nm with increasing concentration of peroxynitrite ([1]; 1 μM probe, 0.1 M potassium phosphate buffer pH 7.4, data not shown)	fluorescence intensity after the addition of peroxynitrite ([1]; 1 μM probe, peroxynitrite 0-7 μM, 0.1 M potassium phosphate buffer pH 7.4, after 5 minutes, excitation 515 nm)	fluorescence of the probe itself ([2]; 1 μM, 0.1 M phosphate buffer pH 7.4, excitation 515 nm)
CN(c1ccc(CCC(=O)C(F)(F)F)cc1)c1cc2c(cc1Cl)C1(OC(=O)c3ccccc31)c1cc(Cl)c(O)cc1O2 (stereo not drawn) [Compound 10]	increases linearly	increase significantly	non-fluorescent	–	–	–
CN(c1ccc(O)cc1)c1ccc2c(c1)Oc1cc(O)ccc1C21OC(=O)c2ccccc21 (stereo not drawn) [Compound 12]	–	–	–	increases linearly	increase significantly	non-fluorescent
